Test results as given in ChEMBL document CHEMBL5579802, “Identification of 3,4-dihydropyrimido[4,5-d]pyrimidin-2(1H)-one scaffolds as potent Lck inhibitors as anti-cancer agents” (Bioorg Med Chem Lett, 2024).

Assays:
COLO 201 [1] = test: Induction of apoptosis in human COLO201 cells assessed as necrotic cells at 2 uM by Annexin V-FITC and PI staining based flow cytometry analysis (reference value: 0.7%); format: functional
COLO 201 [2] = test: Induction of apoptosis in human COLO201 cells assessed as late apoptotic cells at 1 uM by Annexin V-FITC and PI staining based flow cytometry analysis (reference value: 6.2%); format: functional
COLO 201 [3] = test: Induction of apoptosis in human COLO201 cells assessed as viable cells at 0.2 uM by Annexin V-FITC and PI staining based flow cytometry analysis ( Rvb = 90%); format: functional; conditions: read-out: Activity
COLO 201 [4] = test: Induction of apoptosis in human COLO201 cells assessed as early apoptotic cells at 0.2 uM by Annexin V-FITC and PI staining based flow cytometry analysis (reference value: 3.2%); format: functional
COLO 201 [5] = test: Induction of apoptosis in human COLO201 cells assessed as late apoptotic cells at 2 uM by Annexin V-FITC and PI staining based flow cytometry analysis (reference value: 6.2%); format: functional
COLO 201 [6] = test: Induction of apoptosis in human COLO201 cells assessed as viable cells at 10 uM by Annexin V-FITC and PI staining based flow cytometry analysis (reference value: 90%); format: functional; conditions: read-out: Activity
COLO 201 [7] = test: Induction of apoptosis in human COLO201 cells assessed as early apoptotic cells at 1 uM by Annexin V-FITC and PI staining based flow cytometry analysis (reference value: 3.2%); format: functional
COLO 201 [8] = test: Induction of apoptosis in human COLO201 cells assessed as viable cells at 1 uM by Annexin V-FITC and PI staining based flow cytometry analysis (reference value: 90%); format: functional; conditions: read-out: Activity
COLO 201 [9] = test: Induction of apoptosis in human COLO201 cells assessed as viable cells at 2 uM by Annexin V-FITC and PI staining based flow cytometry analysis (reference value: 90%); format: functional; conditions: read-out: Activity
COLO 201 [10] = test: Induction of apoptosis in human COLO201 cells assessed as early apoptotic cells at 2 uM by Annexin V-FITC and PI staining based flow cytometry analysis (reference value: 3.2%); format: functional
[11] = biological target: T1, Tyrosine-protein kinase Lck (Homo sapiens, UniProt P06239); test: Inhibition of LCK (unknown origin)
COLO 201 [12] = test: Induction of apoptosis in human COLO201 cells assessed as early apoptotic cells at 10 uM by Annexin V-FITC and PI staining based flow cytometry analysis (reference value: 3.2%); format: functional
COLO 201 [13] = test: Induction of apoptosis in human COLO201 cells assessed as necrotic cells at 10 uM by Annexin V-FITC and PI staining based flow cytometry analysis (reference value: 0.7%); format: functional
COLO 201 [14] = test: Induction of apoptosis in human COLO201 cells assessed as late apoptotic cells at 0.2 uM by Annexin V-FITC and PI staining based flow cytometry analysis (reference value: 6.2%); format: functional
COLO 201 [15] = test: Induction of apoptosis in human COLO201 cells assessed as necrotic cells at 0.2 uM by Annexin V-FITC and PI staining based flow cytometry analysis (reference value: 0.7%); format: functional
[16] = biological target: T1, Tyrosine-protein kinase Lck; test: Inhibition of recombinant human LCK (64 to 509 residues) incubated for 60 mins in presence of ATP by HTRF method
COLO 201 [17] = test: Induction of apoptosis in human COLO201 cells assessed as late apoptotic cells at 10 uM by Annexin V-FITC and PI staining based flow cytometry analysis (reference value: 6.2%); format: functional
COLO 201 [18] = test: Induction of apoptosis in human COLO201 cells assessed as necrotic cells at 1 uM by Annexin V-FITC and PI staining based flow cytometry analysis (reference value: 0.7%); format: functional
MDA-MB-231 = test: Antiproliferative activity against human MDA-MB-231 cells; format: functional
HCT-15 = test: Antiproliferative activity against human HCT-15 cells; format: functional
COLO 205 = test: Antiproliferative activity against human COLO 205 cells; format: functional
K562 = test: Antiproliferative activity against human K562 cells; format: functional
OVCAR-8 = test: Antiproliferative activity against human OVCAR-8 cells; format: functional
UACC-257 = test: Antiproliferative activity against human UACC-257 cells; format: functional
SK-OV-3 = test: Antiproliferative activity against human SK-OV-3 cells; format: functional
T47D = test: Antiproliferative activity against human T47D cells; format: functional
SN12C = test: Antiproliferative activity against human SN12C cells; format: functional
MDA-MB-435 = test: Antiproliferative activity against human MDA-MB-435 cells; format: functional
MCF7 = test: Antiproliferative activity against human MCF7 cells; format: functional
KM12 = test: Antiproliferative activity against human KM12 cells; format: functional
Hs-578T = test: Antiproliferative activity against human Hs-578T cells; format: functional
DU-145 = test: Antiproliferative activity against human DU-145 cells; format: functional
NCI-H460 = test: Antiproliferative activity against human NCI-H460 cells; format: functional
OVCAR-5 = test: Antiproliferative activity against human OVCAR-5 cells; format: functional
IGROV-1 = test: Antiproliferative activity against human IGROV-1 cells; format: functional
A549 = test: Antiproliferative activity against human A549 cells; format: functional
NCI-H23 = test: Antiproliferative activity against human NCI-H23 cells; format: functional
COLO 201 [19] = test: Induction of apoptosis in human COLO201 cells assessed as increase in cleaved PARP level by Western blotting analysis; format: functional, cell-based; conditions: dose 1-10 µM
ACHN = test: Antiproliferative activity against human ACHN cells; format: functional
[20] = Antiproliferative activity against human […] cells; format: functional
HOP-62 = test: Antiproliferative activity against human HOP-62 cells; format: functional
EKVX = test: Antiproliferative activity against human EKVX cells; format: functional
HT-29 = test: Antiproliferative activity against human HT-29 cells; format: functional
HCC 2998 = test: Antiproliferative activity against human HCC 2998 cells; format: functional
SR = test: Antiproliferative activity against human SR cells; format: functional
BT-549 = test: Antiproliferative activity against human BT-549 cells; format: functional
NCI-H522 = test: Antiproliferative activity against human NCI-H522 cells; format: functional
RXF 393 = test: Antiproliferative activity against human RXF 393 cells; format: functional
SW-620 = test: Antiproliferative activity against human SW620 cells; format: functional
OVCAR-3 = test: Antiproliferative activity against human OVCAR-3 cells; format: functional
TK-10 = test: Antiproliferative activity against human TK-10 cells; format: functional
NCI-H226 = test: Antiproliferative activity against human NCI-H226 cells; format: functional
786-0 = test: Antiproliferative activity against human 786-0 cells; format: functional
SK-MEL-28 = test: Antiproliferative activity against human SK-MEL-28 cells; format: functional
PC-3 = test: Antiproliferative activity against human PC-3 cells; format: functional
A498 = test: Antiproliferative activity against human A498 cells; format: functional
HL-60(TB) = test: Antiproliferative activity against human HL-60(TB) cells; format: functional
M14 = test: Antiproliferative activity against human M14 cells; format: functional
NCI/ADR-RES = test: Antiproliferative activity against human NCI/ADR-RES cells; format: functional
UO-31 = test: Antiproliferative activity against human UO-31 cells; format: functional
MOLT-4 = test: Antiproliferative activity against human MOLT-4 cells; format: functional
SK-MEL-2 = test: Antiproliferative activity against human SK-MEL-2 cells; format: functional
U-251 = test: Antiproliferative activity against human U-251 cells; format: functional
HCT-116 = test: Antiproliferative activity against human HCT-116 cells; format: functional
SNB-19 = test: Antiproliferative activity against human SNB-19 cells; format: functional
SF-268 = test: Antiproliferative activity against human SF-268 cells; format: functional
SNB-75 = test: Antiproliferative activity against human SNB-75 cells; format: functional
CAKI-1 = test: Antiproliferative activity against human CAKI-1 cells; format: functional
Malme-3M = test: Antiproliferative activity against human Malme-3M cells; format: functional
LOX IMVI = test: Antiproliferative activity against human LOX IMVI cells; format: functional
HOP-92 = test: Antiproliferative activity against human HOP-92 cells; format: functional
MDA-MB-468 = test: Antiproliferative activity against human MDA-MB-468 cells; format: functional
COLO 201 [21] = test: Antiproliferative activity against human COLO201 cells; format: functional

T1 sequence (P06239 whole entry): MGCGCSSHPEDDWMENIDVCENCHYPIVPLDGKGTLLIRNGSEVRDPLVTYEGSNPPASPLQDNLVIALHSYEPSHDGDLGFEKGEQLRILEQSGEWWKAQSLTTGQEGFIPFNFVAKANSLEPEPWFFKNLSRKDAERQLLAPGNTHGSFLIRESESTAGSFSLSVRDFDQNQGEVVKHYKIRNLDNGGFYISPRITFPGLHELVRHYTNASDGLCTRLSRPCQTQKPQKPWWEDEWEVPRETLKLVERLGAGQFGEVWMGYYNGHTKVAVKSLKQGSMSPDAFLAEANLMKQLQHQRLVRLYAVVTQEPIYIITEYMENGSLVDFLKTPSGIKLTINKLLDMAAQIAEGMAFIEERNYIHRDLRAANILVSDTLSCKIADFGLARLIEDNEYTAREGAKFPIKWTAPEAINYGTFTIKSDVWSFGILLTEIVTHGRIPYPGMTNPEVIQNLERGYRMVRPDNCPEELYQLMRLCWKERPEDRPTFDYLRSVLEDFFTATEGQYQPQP

COc1cc(-c2nn(C3CCC(N4CCN(C(C)=O)CC4)CC3)c3ncnc(N)c23)ccc1NC(=O)c1cc2ccccc2n1C (stereo unspecified)
Activity (COLO 201 [1]): 1.8% | Activity (COLO 201 [2]): 6.6% | viability at 0.2 µM (COLO 201 [3]): 92.6% | Activity (COLO 201 [4]): 2.5% | Activity (COLO 201 [5]): 8.5% | viability at 10 µM (COLO 201 [6]): 26.6% | Activity (COLO 201 [7]): 3.4% | viability at 1 µM (COLO 201 [8]): 88.7% | viability at 2 µM (COLO 201 [9]): 82.6% | Activity (COLO 201 [10]): 7.1% | IC50 [11]: 147 nM | Activity (COLO 201 [12]): 16.9% | Activity (COLO 201 [13]): 3.8% | Activity (COLO 201 [14]): 4.3% | Activity (COLO 201 [15]): 0.6% | IC50 [16]: 147 nM | Activity (COLO 201 [17]): 52.7% | Activity (COLO 201 [18]): 1.2%

Cc1ccc(Nc2ncc3c(n2)N(C)C(=O)N(c2cc(NC(=O)c4ccc([N+](=O)[O-])c(OCC(C)C)c4)ccc2C)C3)cn1
GI50 (MDA-MB-231): 130 nM | GI50 (HCT-15): 410 nM | GI50 (COLO 205): 240 nM | GI50 (K562): 10 nM | GI50 (OVCAR-8): 410 nM | GI50 (UACC-257): 670 nM | GI50 (SK-OV-3): 190 nM | GI50 (T47D): 700 nM | GI50 (SN12C): 170 nM | Activity (COLO 201 [1]): 5.2% | GI50 (MDA-MB-435): 250 nM | GI50 (MCF7): 8330 nM | GI50 (KM12): 740 nM | viability at 0.2 µM (COLO 201 [3]): 80.9% | GI50 (Hs-578T): 280 nM | GI50 (DU-145): 400 nM | GI50 (NCI-H460): 430 nM | Activity (COLO 201 [4]): 5.6% | GI50 (OVCAR-5): 540 nM | viability at 10 µM (COLO 201 [6]): 54.4% | GI50 (IGROV-1): 210 nM | GI50 (A549): 430 nM | GI50 (NCI-H23): 499 nM | Activity (COLO 201 [7]): 13.9% | Activity (COLO 201 [19]): Dose-Dependent Effect | GI50 (ACHN): 150 nM | GI50 [20]: 480 nM | GI50 (HOP-62): 1130 nM | GI50 (EKVX): 980 nM | GI50 (HT-29): 410 nM | viability at 1 µM (COLO 201 [8]): 61.3% | viability at 2 µM (COLO 201 [9]): 57.1% | GI50 (HCC 2998): 1100 nM | GI50 (SR): 180 nM | Activity (COLO 201 [10]): 17% | GI50 (BT-549): 1370 nM | GI50 (NCI-H522): 300 nM | GI50 (RXF 393): 94 nM | GI50 (SW-620): 520 nM | GI50 (OVCAR-3): 1090 nM | GI50 (TK-10): 390 nM | GI50 (NCI-H226): 410 nM | GI50 (786-0): 450 nM | GI50 (SK-MEL-28): 240 nM | GI50 (PC-3): 790 nM | GI50 (A498): 220 nM | GI50 (HL-60(TB)): 230 nM | Activity (COLO 201 [12]): 13.3% | GI50 (M14): 160 nM | Activity (COLO 201 [13]): 7.4% | GI50 (NCI/ADR-RES): 3530 nM | GI50 (UO-31): 270 nM | GI50 (MOLT-4): 430 nM | Activity (COLO 201 [14]): 11.7% | Activity (COLO 201 [15]): 1.8% | GI50 (SK-MEL-2): 92 nM | GI50 (U-251): 550 nM | GI50 (HCT-116): 330 nM | GI50 (SNB-19): 3920 nM | GI50 (SF-268): 490 nM | GI50 (SNB-75): 290 nM | GI50 (CAKI-1): 60 nM | GI50 (Malme-3M): 200 nM | Activity (COLO 201 [18]): 4.6% | GI50 (LOX IMVI): 200 nM | GI50 (HOP-92): 90 nM | GI50 (MDA-MB-468): 380 nM | GI50 (COLO 201 [21]): 1260 nM
